Experimental data taken from patent publication US4983328A, “N-(4-(3-aminopropyl)aminobutyl)-2-(ω-gua nidino-fatty-acid-amido(-2-substituted-ethanamide, salt thereof, and process for preparation thereof” (Bristol-Myers Company, priority 1981, dated 1991).
In brackets after ≈: the same amount, converted by molar mass. Like-named read-outs stand apart in the source and are kept apart here.

Columns and labels:
[1] = chemical stability: retention (%) after heating at 60° C. for 4 hours, by HPLC; assay type: physicochemical
Protocol: The chemical stability of the present compound was evaluated by determining the retention (%) after heating at 60° C. for 4 hours. In Table 5 are shown the test results together with those for spergualin as reference. The retention was determined by means of high performance liquid chromatography (HPLC). The column was packed with Nucleosil® 5C18. The solvent used for spergualin was a mixture (6:94) of acetonitrile -0.01M sodium pentanesulfonate +0.01M Na2 HPO4 (pH 3), while that for the compounds of this invention was a mixture of acetonitrile -0.005M sodium pentanesulfonate ±0.01M Na2 HPO4 (pH 3). The mixture ratio in the latter case was varied for each particular compound. For instance, a mixing ratio of 10:90 was used for Compound No. 9, while that of 7:93 for Compound No. 22.

[2] = tested on: mouse leukemia L-1210 cells; test: growth inhibitory activity to cancer cells in vitro (L-1210, 48 hours); assay type: cell-based; details: for inhibition at 2.5 µg/mL: L1210, 2.5 mcg/ml; for inhibition at 5 µg/mL: L1210, 5 mcg/ml; for inhibition at 10 µg/mL: L1210, 10 mcg/ml; for inhibition at 20 µg/mL: L1210, 20 mcg/ml; for inhibition at 40 µg/mL: L1210, 40 mcg/ml; for IC50: L1210, L-1210 cells, read-out: 50% inhibitory concentration; for inhibition at 1.25 µg/mL: L1210, 1.25 mcg/ml
Procedure, shortened: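 L-1210 cells from DBA/2 mouse ascites, cultured at 5×10^4 cells per well in RPMI 1640 with 10% FCS and 5 μM 2-mercaptoethanol, 37° C, CO2, for 48 h with compound. Cell counts by Coulter Counter gave % inhibition (1−T/C)×100, and IC50 was derived across concentrations.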

[3] = acute toxicity in mice (single intraperitoneal administration); details: mouse, in vivo, ip, read-out: LD50 (median lethal dose on single administration)
Protocol: In Table 8 median lethal doses (LD50) of typical compounds of this invention are shown, measured in mice upon single intraperitoneal administration, as well as maximum tolerated doses in terms of total dose when a fixed amount per unit body weight was administered intraperitoneally to mice once a day for 6 consecutive days.
*Median lethal dose on single administration.

[4] = cumulative toxicity in mice (maximum tolerated dose, once a day for 6 consecutive days); details: mouse, in vivo, ip, i.p. once a day for 6 consecutive days, total dose, read-out: Maximum Tolerated Dose (total dose not causing death)
Procedure, shortened: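 Mice dosed intraperitoneally once a day for 6 consecutive days with a fixed amount per unit body weight. The value is the maximum total dose not causing death.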

mouse leukemia L-1210 = test: therapeutic effect on implanted cancer in mice (L-1210, survival over 30 days); assay type: in vivo, mouse (BDF1); details: L1210, ip, 720 h, 6 days; for responders at 3.13 mg/kg / response vs control in vivo at 3.13 mg/kg: 3.13 mg/kg/day i.p.; for responders at 6.25 mg/kg / response vs control in vivo at 6.25 mg/kg: 6.25 mg/kg/day i.p.; for responders at 12.5 mg/kg / response vs control in vivo at 12.5 mg/kg: 12.5 mg/kg/day i.p.; for responders at 25 mg/kg / response vs control in vivo at 25 mg/kg: 25 mg/kg/day i.p.
Procedure, shortened: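 In vivo antileukemic activity was assessed using 5-week-old male BDF1 mice implanted i.p. with 10^5 L-1210 cells. Compound in physiological saline was given by daily intraperitoneal injection over 6 days beginning on the day of implantation; survival was monitored over a 30-day observation period, comparing treated with control groups.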

[5] = read-out: Growth inhibition (%), (1-T/C) × 100
[6] = read-out: Number of mice survived for 30 days (converted)
[7] = read-out: Prolongation of survival period (%), T/C × 100

| SMILES | remaining at 4 h ([1]; pH 2, pH 2) | remaining at 4 h ([1]; pH 4, pH 4) | remaining at 4 h ([1]; pH 5, pH 5) | remaining at 4 h ([1]; pH 6, pH 6) | remaining at 4 h ([1]; pH 7, pH 7) | remaining at 4 h ([1]; pH 8, pH 8) | remaining at 4 h ([1]; pH 9, pH 9) | remaining at 4 h ([1]; pH 10, pH 10) | inhibition at 2.5 µg/mL [2, 5] | inhibition at 5 µg/mL [2, 5] | inhibition at 10 µg/mL [2, 5] | inhibition at 20 µg/mL [2, 5] | inhibition at 40 µg/mL [2, 5] | IC50 [2] | LD50 ([3]; mice, single i.p.) | MTD [4] | remaining at 4 h ([1]; pH 3, pH 3) | inhibition at 1.25 µg/mL [2, 5] | responders at 3.13 mg/kg (mouse leukemia L-1210; [6]) | response vs control in vivo at 3.13 mg/kg (mouse leukemia L-1210; [7]) | also measured |
| --- | --- | --- | --- | --- | --- | --- | --- | --- | --- | --- | --- | --- | --- | --- | --- | --- | --- | --- | --- | --- | --- |
| CCCCOC(NC(=O)C[C@@H](O)CCCCNC(=N)N)C(=O)NCCCCNCCCN (stereo partly drawn) [Compound 24, N-[4-(3-aminopropyl)aminobutyl]-2-(7-guanidino-3-hydroxyheptanamido)-2-butoxyethanamide] | 76.3% | 100% | 100% | 100% | 100% | 100% | 97.1% | 94.8% | 47.3% | 75.6% | 89.5% | 95% | 97.2% | 2.6 µg/mL (≈ 5.66 µM) | > 50 mg/kg | > 300 mg/kg |  |  |  |  |  |
| N=C(N)NCCCCCCC(=O)NC(OCCO)C(=O)NCCCCNCCCN (stereo not drawn) [Compound 14, N-[4-(3-aminopropyl)aminobutyl]-2-(7-guanidinoheptanamido)-2-(2-hydroxy)ethoxyethanamide] | 71.8% | 100% |  | 100% |  | 100% | 97.5% | 97.3% |  | 22.3% | 24.6% | 29.9% | 42.7% | 52 µg/mL (≈ 120 µM) | 25 to 50 mg/kg | > 150 mg/kg | 90.6% |  |  |  | inhibition at 80 µg/mL ([2]; L1210, 80 mcg/ml, read-out: Growth inhibition (%), (1-T/C) × 100): 58.6% |
| N=C(N)NCCCC[C@H](O)CC(=O)NC(OCc1ccccc1)C(=O)NCCCCNCCCN (stereo partly drawn) [Compound 26, N-[4-(3-aminopropyl)aminobutyl]-2-(7-guanidino-3-hydroxyheptanamido)-2-benzyloxyethanamide] | 77.2% | 100% | 100% | 100% | 100% | 100% | 95.9% | 94.5% | 54.2% | 79% | 90.2% | 96.6% | 97.3% | 2.2 µg/mL (≈ 4.46 µM) |  | > 75 mg/kg |  |  |  |  | LD50 [3]: 12.5 to 25 mg/kg |
| N=C(N)NCCCCCCCCC(=O)NC(O)C(=O)NCCCCNCCCN (stereo not drawn) [Compound 6, N-[4-(3-aminopropyl)aminobutyl]-2-(9-guanidinononanamido)-2-hydroxyethanamide] |  |  |  |  |  |  |  |  | 40.3% | 45.5% | 50.3% | 57.5% |  | 8 µg/mL (≈ 19.3 µM) | 12.5 to 25 mg/kg | > 75 mg/kg |  | 38% | 50% | > 386% | responders at 0.2 mg/kg (mouse leukemia L-1210; 0.20 mg/kg/day i.p., read-out: Number of mice survived for 30 days (converted)): 50%; response vs control in vivo at 0.2 mg/kg (mouse leukemia L-1210; 0.20 mg/kg/day i.p., read-out: Prolongation of survival period (%), T/C × 100): > 354%; responders at 0.39 mg/kg (mouse leukemia L-1210; 0.39 mg/kg/day i.p., read-out: Number of mice survived for 30 days (converted)): 50%; response vs control in vivo at 0.39 mg/kg (mouse leukemia L-1210; 0.39 mg/kg/day i.p., read-out: Prolongation of survival period (%), T/C × 100): > 383%; responders at 0.78 mg/kg (mouse leukemia L-1210; 0.78 mg/kg/day i.p., read-out: Number of mice survived for 30 days (converted)): 100%; response vs control in vivo at 0.78 mg/kg (mouse leukemia L-1210; 0.78 mg/kg/day i.p., read-out: Prolongation of survival period (%), T/C × 100): > 429%; responders at 1.56 mg/kg (mouse leukemia L-1210; 1.56 mg/kg/day i.p., read-out: Number of mice survived for 30 days (converted)): 75%; response vs control in vivo at 1.56 mg/kg (mouse leukemia L-1210; 1.56 mg/kg/day i.p., read-out: Prolongation of survival period (%), T/C × 100): > 393%; responders at 6.25 mg/kg (mouse leukemia L-1210; [6]): 100%; response vs control in vivo at 6.25 mg/kg (mouse leukemia L-1210; [7]): > 429%; responders at 12.5 mg/kg (mouse leukemia L-1210; [6]): 100%; response vs control in vivo at 12.5 mg/kg (mouse leukemia L-1210; [7]): > 429%; responders at 25 mg/kg (mouse leukemia L-1210; [6]): 0%; response vs control in vivo at 25 mg/kg (mouse leukemia L-1210; [7]): 0%; responders at 50 mg/kg (mouse leukemia L-1210; 50 mg/kg/day i.p., read-out: Number of mice survived for 30 days (converted)): 0%; response vs control in vivo at 50 mg/kg (mouse leukemia L-1210; 50 mg/kg/day i.p., read-out: Prolongation of survival period (%), T/C × 100): 0% |
| CCOC(NC(=O)C[C@@H](O)CCCCNC(=N)N)C(=O)NCCCCNCCCN (stereo partly drawn) [Compound 23, N-[4-(3-aminopropyl)aminobutyl]-2-(7-guanidino-3-hydroxyheptanamido)-2-ethoxyethanamide] |  |  |  |  |  |  |  |  | 58.5% | 85.5% | 93% | 96.1% | 96.4% | 2.2 µg/mL (≈ 5.1 µM) | > 25 mg/kg | > 150 mg/kg |  |  | 0% | 104% | responders at 6.25 mg/kg (mouse leukemia L-1210; [6]): 0%; response vs control in vivo at 6.25 mg/kg (mouse leukemia L-1210; [7]): 119%; responders at 12.5 mg/kg (mouse leukemia L-1210; [6]): 0%; response vs control in vivo at 12.5 mg/kg (mouse leukemia L-1210; [7]): 129%; responders at 25 mg/kg (mouse leukemia L-1210; [6]): 0%; response vs control in vivo at 25 mg/kg (mouse leukemia L-1210; [7]): 200% |
| N=C(N)NCCCCCCC(=O)NC(OCc1ccccc1)C(=O)NCCCCNCCCN (stereo not drawn) [Compound 15, N-[4-(3-aminopropyl)aminobutyl]-2-(7-guanidinoheptanamido)-2-benzyloxyethanamide] | 76.5% | 100% |  | 100% |  | 100% | 99% | 96.2% | 39% | 71% | 94.5% | 97.7% | 100% | 3.1 µg/mL (≈ 6.49 µM) | 12.5 to 25 mg/kg | > 75 mg/kg | 91.4% | 27.1% |  |  |  |
